As a reminder, the solubility is how much of the substance goes into solution per volume.

These results are taken from patent US20220401369A1, “SOLID DISPERSION OF PAN-RAF KINASE INHIBITOR” (DAY ONE BIOPHARMACEUTICALS, INC., priority 2019, published 2022).

Converted amounts (≈) assume the structure as drawn. Where two headings read alike, the source gives them in different places.

Data set [1] can be described thus: Polymer screening by DSC (miscibility of Compound 1 in polymer). It counts as physicochemical. The protocol:
Differential Scanning calorimetry (DSC) and Oil bath methods were applied to study solid dispersions comprising Compound 1. DSC is applied for the prediction of miscibility and solubility of Compound 1 in polymer.
Pure crystalline drug Compound 1 was physically mixed with each pure polymer. The equilibrium solution temperature (Tend) and Enthalpy (H) of Compound 1 in each 20% Compound 1 loaded physical mixture (PM) were measured for polymer screening by DSC (Discovery™ DSC, TA Instruments) with following steps;
−20° C. to over MP (melting point) of Compound 1 (206° C.) @1° C./min
From the endothermic peak of DSC, H and Tend were analyzed, and the change ratio A E between pure Compound 1 and PM was defined as miscibility parameters (Eq. 1). […] Therefore, the lower A E means the higher miscibility.

A short description of data set [2]: Solubility (24 h, 37° C.) in JP1 and JP2. The settings on record: thermodynamic from solid. The format is physicochemical.
Where [3] appears, read: 20% Compound 1 loaded physical mixture with polymer, pure Compound 1 as reference.

Regarding `C[C@@H](NC(=O)c1ncnc(N)c1Cl)c1ncc(C(=O)Nc2cc(C(F)(F)F)c(Cl)cn2)s1` [Compound 1, (R)-2-(1-(6-amino-5-chloropyrimidine-4-carboxamido)ethyl)-N-(5-chloro-4-(trifluoromethyl)pyridin-2-yl)thiazole-5-carboxamide], in data set [1] (setting [3]), the “DSC H (enthalpy)” value came to 102.52 J/g and the “DSC Tend (equilibrium solution temperature)” value was 209.958 °C. Besides, in data set [1] (20% Compound 1 loaded physical mixture, lower ΔE means higher miscibility), the “DSC ΔE (miscibility parameter)” value turned out to be 2.00. For the same compound, the solubility at 24 h in data set [2] (aqueous buffer, JP2 (pH 6.8), Table 2, read-out: Solubility JP2) amounted to 1.1 µg/mL (≈ 2.17 µM). For the same compound, in data set [2] (simulated gastric fluid, JP1 (pH 1.2), Table 2, read-out: Solubility JP1), the solubility at 24 h was 3.4 µg/mL (≈ 6.72 µM).
